Assay results published in patent US20020006421A1, “Long-acting, chemical-resistant skin emollients, moisturizers, and strengtheners” (priority 1997, published 2002).

Test: Reaction with N-acetylcysteamine (model for skin-bound sulfhydryl groups) in the presence of base, followed by 1H NMR
Conditions: for time after which the reaction was complete by NMR: 1 equivalent N-acetylcysteamine per crotonyl moiety, CDCl3
Source text: As a model for skin-bound sulfhydryl groups (—SH) of cysteine residues in skin proteins, the compound N-acetylcysteamine was allowed to react with OSM in the presence of a catalytic amount of the base 1,5-diazabicyclo[4.3.0]non-5-ene (DBN) in chloroform solution.
As a model for skin-bound sulfhydryl groups (—SH) of cysteine residues in skin proteins, the compound N-acetylcysteamine was allowed to react with OCM in the presence of a catalytic amount of the base 1,5-diazabicyclo[4.3.0]non-5-ene (DBN) in chloroform solution.
As a model for skin bound sulfhydryl groups (—SH) of cysteine residues in skin proteins, the compound N-acetylcysteamine was allowed to react with DCPEG in the presence of a catalytic amount of the base 1,5-diazabicyclo[4.3.0]non-5-ene (DBN) in chloroform solution.
A solution of octadecyl S-sorbyl-3 -mercaptopropionate (10.9 mg, 0.024 mmol) in 0.3 mL of CDCl3 was added to a solution of N-acetylcysteamine (5.2 μL, 0.048 mmol) and DBN (3.1 μL, 0.025 mmol) in 0.3 mL of CDCl3. The mixture was immediately transferred to an NMR tube and the first spectrum was recorded at time=0. The reaction solution was allowed to stand at room temperature in the NMR tube for two days, and the course of the reaction was monitored by periodically recording the ^1H NMR spectrum. A total often ^1H NMR experiments were performed at time=0, 0.25, 0.5, 1, 1.5, 4.5, 12, 20.5, 26, and 39 hours.
The time course of the reaction of OSM with 2 equiv of N-acetylcysteamine in the presence of 1 equiv of DBN in 0.6 mL of CDCl3 was studied by recording ^1H NMR spectra at various times for 39 hours. The signals of the olefinic protons due to the sorbate group of OSM (δ 6.2-6.0 and δ 7.2) and that of the newly formed C═C bond of the monoadducts (δ 5.6-5.2) were monitored in particular. In the course of these experiments, it was observed that the signals at δ 6.2-6.0 and δ 7.2 disappeared, while those at δ 5.6-5.2 appeared over the first 1.5 hours of the reaction, which indicated the formation of the monoadducts. The olefinic protons signals of the monoadducts started to fade away gradually after 1.5 hours and became very weak by approximately 39 hours. These spectra may imply the formation of the diadduct.
The reaction of OCM with N-acetylcysteamine was carried out at room temperature as follows: 22.0 mg of OCM was dissolved in 0.6 mL of CDCl3 and 5.7 μL of N-acetylcysteamine (1 equivalent) was added. […] Then a catalytic amount (0.1 equiv) of the base DBN was added, and the NMR spectrum was recorded immediately and again after 5 minutes. By 5 minutes, more than 60% of the OCM had reacted as judged by the diminished integration of the resonances at 6.9 ppm and 6.1 ppm due to the vinyl protons of the crotonyl moiety of OCM. […] A COSY spectrum confirmed that the expected product, shown earlier herein, had been formed. Nucleophilic attack by the sulfur atom of N-acetylcysteamine, presumably as the thiolate anion, at the β-position of the unsaturated thiol ester generated the expected covalent adduct. […]
The reaction of DCPEG with N-acetylcysteamine was followed by NMR: 35.6 mg of DCPEG was dissolved in 0.7 mL CDCl3 and the spectrum was recorded before and after addition of N-acetylcysteamine (1 equivalent per crotonyl moiety). […]

[1] = 2 equiv N-acetylcysteamine, 1 equiv DBN, CDCl3, room temperature

Compound	time after which the reaction was complete by NMR (0.1 equiv DBN)	OCM reacted, judged by diminished integration of the vinyl proton resonances (1 equivalent N-acetylcysteamine, 0.1 equiv DBN, CDCl3, room temperature, by 5 minutes)	time by which the monoadduct olefinic proton signals became very weak (may imply diadduct formation) [1]	time over which sorbate olefinic signals disappeared and monoadduct signals appeared [1]
C/C=C/C(=O)SCCC(=O)OCCCCCCCCCCCCCCCCCC [OCM, octadecyl S-crotonyl-3-mercaptopropionate]	27 min	more than 60%		
C/C=C/C=C/C(=O)SCCC(=O)OCCCCCCCCCCCCCCCCCC [OSM, octadecyl S-sorbyl-3-mercaptopropionate]			approximately 39 hours	≤ 1.5 h
S,S′-dicrotonyl-α-thio-ω-mercapto[poly(ethylene glycol)] [DCPEG]	5 min			
